Test results from US20190358181A1, “METHODS FOR AUTISM SPECTRUM DISORDER PHARMACOTHERAPY” (priority 2017, published 2019).

Tested on: males with ASD
Test: Aberrant Behavior Checklist (ABC), parent questionnaire, SAT-1 trial
Type: in vivo, human
Details: ABC Stereotypy
Method: Two observational examinations were performed by a clinician at 3 time points: baseline (56±8 days; mean±SEM; before the infusion), 2-days post-infusion, and 6-weeks post-infusion. The two examiner-based metrics were the Autism Diagnostic Observation Schedule, 2nd edition (ADOS-2) with video and audio files recorded on 3 cameras, and the Expressive One Word Picture Vocabulary Testing (EOWPVT). Both of these observational metrics were administered by a trained and certified examiner using approved test materials. Three standardized questionnaires were completed by parents at 3 time points: baseline, 7-days post-infusion, and 6-weeks post-infusion. The three standardized questionnaires completed by parents were the 58-question Aberrant Behavior Checklist (ABC), the 75-item Autism Treatment Evaluation Checklist (ATEC), and the 33-item repetitive behavior questionnaire (RBQ). Parents were asked to complete these three instruments with reference to how their child behaved in the previous 7 days. At the end of the six weeks, we included a 24-question Clinical Global Impression (CGI) questionnaire (FIG. 16). In addition, parents were asked to list the 3 top behaviors or symptoms that they observed to be most changed over the previous 6-weeks. To minimize the misinterpretation of natural day-to-day variations in symptoms, parents were asked to mark a symptom as changed in the 6-week CGI only if it had lasted for at least 1 week. […]
Behavioral and neurological effects of treatment were assessed primarily by the examiner-based ADOS-2 protocol scores and standardized vocabulary testing (Expressive One Word Picture Vocabulary Test, EOWPVT), with secondary evaluation via parent-based assessments (Aberrant Behavior Checklist (ABC) scores, Autism Treatment Evaluation Checklist (ATEC) scores, Clinical Global Impression of Improvement (CGI) scores, and Repetitive Behavior Questionnaire (RBQ) scores). […] Examiner-based outcomes (ADOS and EOWPVT) were assessed at 2-days and 6-weeks after the infusion. Parent-based outcomes (ABC, ATEC, CGI, and RBQ) were assessed at 7-days and 6-weeks after the infusion. […]
Each child was used as their own control to examine before and after treatment effects from Example 1 in a paired t-test design for the analysis of the ADOS, EOWPVT, ABC, ATEC, RBQ (FIGS. 4-11 show individual analyses), and blood and urine safety data (FIGS. 2 and 3 show individual analyses). […] Categorical data, such as the presence or absence of adverse events or historical symptoms was analyzed by Fisher's exact test. […] Cohen's d—calculated as the mean difference of the paired, within-subject scores before and after treatment, divided by the standard deviation of the differences—was used as an estimate of effect size.

**Q.** How did the “Difference from baseline (mean ± sd)” value (7 days after treatment) turn out when Cc1ccc(C(=O)Nc2ccc(S(=O)(=O)O)c3cc(S(=O)(=O)O)cc(S(=O)(=O)O)c23)cc1NC(=O)c1cccc(NC(=O)Nc2cccc(C(=O)Nc3cc(C(=O)Nc4ccc(S(=O)(=O)O)c5cc(S(=O)(=O)O)cc(S(=O)(=O)O)c45)ccc3C)c2)c1 [Suramin, suramin] was run?
**A.** −3.6 ± 2.1

**Q.** What about the “d (Cohen's d)” value (7 days after treatment) of the same molecule?
**A.** 1.7

**Q.** What about the “Difference from baseline (mean ± sd)” value (45 days after treatment) of the same molecule?
**A.** −4.0 ± 2.3

**Q.** What about the “d (Cohen's d)” value (45 days after treatment) of the same molecule?
**A.** 1.7
